Laboratory results reported in patent US4826845A, “3(2H)-pyridazinones and pharmaceutical compositions thereof” (Richter Gedeon Vegyeszeti Gyar T.R., priority 1985, dated 1989).
Structures can show the parent of a compound that is named as a salt. Where two headings read alike, the source gives them in different places. Each block holds one compound with its values, some of them ahead of it.

Legend:
anaesthetized cats = test: Measurement of the hypotensive effect on anaesthetized cats (i.v. screening); format: in vivo, cat; conditions: for Mean arterial pressure decrease: anaesthetized cats; for blood pressure lowering action (in words): intravenous, summary of Table 1
Procedure: A tube was introduced into the trachea of cats anaesthetized by the intraperitoneal (i.p.) administration of 35 mg/kg of sodium pentobarbital whereby the spontaneous breathing was supported. On the one side of the animals, the femoral artery and vein were exposed and a polyethylene cannula was introduced in both vessels each. The substances to be tested were administered through the venous cannula. The mean arterial blood pressure was measured by connecting the arterial cannula with a Statham P 23 Db pressure transducer and electromanometer.
As a first screening dose, 5 mg/kg of the compounds to be tested were intravenously (i.v.) administered.

[1] = target: T1, potential-mediated calcium channel (Rattus norvegicus, UniProt P22002); test: Calcium-antagonism on isolated portal vein: potential-mediated calcium channel; format: cell-based
T1 construct: from tissue; host or cells: isolated rat portal vein
Procedure: (§1) The calcium-antagonism of the compounds of the invention was studied on an isolated vessel preparation based on the work of M. Fiol de Cuneo et al. [Arch. Int. Pharmacodyn.
(§2) Male CFY rats with a body-weight of 150 to 200 g were bled by decapitation and the portal vein was immediately prepared starting from the hepatic portal. The vessel was longitudinally incised, bound to a transducer registering the contractions and incubated under a tension of 1 g at 37° C. in a calcium-free Krebs-Ringer bicarbonate solution aerated with carbogen. After an equilibration lasting for 30 minutes, the functioning of the receptor-mediated and the K^+ -depolarisation-mediated calcium channels, respectively, were investigated.
For investigating the potential-mediated calcium channel, the vein placed in the calcium-free Krebs-Ringer solution was washed by adding and then by removing 80 millimoles of potassium chloride while maintaining the isotania until no contraction appeared on repeatedly adding potassium chloride.
(§3) All measurements were carried out at 37° C. while bubbling through carbogen.

[2] = system: adrenergic receptor-mediated calcium channel; test: Calcium-antagonism on isolated portal vein: adrenergic receptor-mediated calcium channel; format: cell-based; conditions: rat portal vein, 1×10^-5 mole norepinephrine, 37° C.; read-out: Inhibition of the calcium channel, adrenergic receptor-mediated, IC50
Procedure: as §1, §2, §3

[3] = system: pre- and postsynaptic alpha receptors; test: Action on the pre- and postsynaptic adrenergic alpha receptors on the stimulated mouse vas deferens; format: cell-based; conditions: concentration 10^-7 mole
Procedure: The method of Hughes et al. [Brit. J. Phamacol. 51, pp. 139-140P (1975)] was used. The preparations suspended in a modified Krebs solution at 31° C. were excited by the field stimulation method [rectangular paired impulses with 1 msec interval, supramaximal potential (70 to 75 V=8 to 9 V/cm) and 100 msec impulse interval, pairs repeated in each 10 sec]. After stimulation, norepinephrine (NE) was dropped into the organ bath and a dose-response curve was taken up. Thus, the effect of both the endogenous norepinephrine liberated by stimulation and the exogenous norepinephrine could be studied before and after adding the substance to be tested.

conscious SH rats [4] = test: Antihypertensive effect on conscious, spontaneously hypertensive (SH) rats after oral administration; format: in vivo, rat
Excerpt: The systolic blood pressure was indirectly measured by the tail-cuff method. The compounds to be tested were introduced orally (p.o.) to the animals. The blood pressure measurements were made by using a 5-channel automatized equipment.

[5] = system: pressor (blood pressure increasing) effect of epinephrine; test: Inhibition of the pressor effect of epinephrine; conditions: in vivo
anaesthetized dogs = test: Hypotensive and heart rate effects on anaesthetized dogs after intravenous or intraduodenal administration; format: in vivo, Beagle dog
Procedure: (§4) Beagle dogs of both sexes were anaesthetized by the intravenous administration of 40 mg/kg of sodium pentobarbital. A cannula was introduced to the femoral artery and vein each on one side for the intravenous administration of the compounds to be tested as well as for measuring the blood pressure.
In an other series of these experiments, the substances were administered through a duodenal tube. Similarly to the experiments carried out on cats, the systemic arterial blood pressure was measured by using an electromanometer and the cardiotachometer was triggered by the heart rate wave sign. […]

[6] = system: conscious renal hypertensive rats; test: Antihypertensive effect on conscious renal hypertensive rats after acute oral treatment; format: in vivo, rat; conditions: 1.25 mg/kg p.o.
Excerpt: (§5) These experiments were accomplished on conscious spontaneously hypertensive (SH) and renally hypertensive rats.
(§6) The systolic blood pressure and heart rate of the animals were indirectly measured by using the tail-cuff method by means of a 5- channel automatized equipment.

renal artery = test: Renal arterial vascular resistance in anaesthetized dogs; format: in vivo, Beagle dog; conditions: 1.0 mg/kg intraduodenal
Procedure: as §4
In an other series of these experiments, the substances were administered through a duodenal tube. Similarly to the experiments carried out on cats, the systemic arterial blood pressure was measured by using an electromanometer and the cardiotachometer was triggered by the heart rate wave sign.
The renal artery on one side was exposed retroperitoneally and fitted with an electromagnetic flow-meter head for measuring the blood flow of the renal arterial vascular bed and for determining the local vascular resistance.

conscious SH rats [7] = test: Antihypertensive effect on conscious SH rats after acute oral treatment; format: in vivo, rat; conditions: SH rats
Excerpt: as §5, §6

[8] = system: postsynaptic alpha1 receptor; test: Kinetic analysis on rabbit aorta strip preparation: postsynaptic alpha1 receptor antagonism; format: cell-based
Procedure: Male rabbits with a body-weight of 3 to 3.5 kg were used for these experiments. […] A dose response curve was plotted by using norepinephrine and a dose selected from the steepest interval of the curve was added repeatedly to the bath until obtaining equal responses. Then, the compound to be tested was added and after 5 minutes, the dose series of norepinephrine was repeated. The extent of the inhibition was expressed as percentage.

[9] = rat portal vein, 80 millimoles KCl, 37° C., read-out: Inhibition of the calcium channel, potential-mediated, IC50

T1 sequence (P22002 whole entry): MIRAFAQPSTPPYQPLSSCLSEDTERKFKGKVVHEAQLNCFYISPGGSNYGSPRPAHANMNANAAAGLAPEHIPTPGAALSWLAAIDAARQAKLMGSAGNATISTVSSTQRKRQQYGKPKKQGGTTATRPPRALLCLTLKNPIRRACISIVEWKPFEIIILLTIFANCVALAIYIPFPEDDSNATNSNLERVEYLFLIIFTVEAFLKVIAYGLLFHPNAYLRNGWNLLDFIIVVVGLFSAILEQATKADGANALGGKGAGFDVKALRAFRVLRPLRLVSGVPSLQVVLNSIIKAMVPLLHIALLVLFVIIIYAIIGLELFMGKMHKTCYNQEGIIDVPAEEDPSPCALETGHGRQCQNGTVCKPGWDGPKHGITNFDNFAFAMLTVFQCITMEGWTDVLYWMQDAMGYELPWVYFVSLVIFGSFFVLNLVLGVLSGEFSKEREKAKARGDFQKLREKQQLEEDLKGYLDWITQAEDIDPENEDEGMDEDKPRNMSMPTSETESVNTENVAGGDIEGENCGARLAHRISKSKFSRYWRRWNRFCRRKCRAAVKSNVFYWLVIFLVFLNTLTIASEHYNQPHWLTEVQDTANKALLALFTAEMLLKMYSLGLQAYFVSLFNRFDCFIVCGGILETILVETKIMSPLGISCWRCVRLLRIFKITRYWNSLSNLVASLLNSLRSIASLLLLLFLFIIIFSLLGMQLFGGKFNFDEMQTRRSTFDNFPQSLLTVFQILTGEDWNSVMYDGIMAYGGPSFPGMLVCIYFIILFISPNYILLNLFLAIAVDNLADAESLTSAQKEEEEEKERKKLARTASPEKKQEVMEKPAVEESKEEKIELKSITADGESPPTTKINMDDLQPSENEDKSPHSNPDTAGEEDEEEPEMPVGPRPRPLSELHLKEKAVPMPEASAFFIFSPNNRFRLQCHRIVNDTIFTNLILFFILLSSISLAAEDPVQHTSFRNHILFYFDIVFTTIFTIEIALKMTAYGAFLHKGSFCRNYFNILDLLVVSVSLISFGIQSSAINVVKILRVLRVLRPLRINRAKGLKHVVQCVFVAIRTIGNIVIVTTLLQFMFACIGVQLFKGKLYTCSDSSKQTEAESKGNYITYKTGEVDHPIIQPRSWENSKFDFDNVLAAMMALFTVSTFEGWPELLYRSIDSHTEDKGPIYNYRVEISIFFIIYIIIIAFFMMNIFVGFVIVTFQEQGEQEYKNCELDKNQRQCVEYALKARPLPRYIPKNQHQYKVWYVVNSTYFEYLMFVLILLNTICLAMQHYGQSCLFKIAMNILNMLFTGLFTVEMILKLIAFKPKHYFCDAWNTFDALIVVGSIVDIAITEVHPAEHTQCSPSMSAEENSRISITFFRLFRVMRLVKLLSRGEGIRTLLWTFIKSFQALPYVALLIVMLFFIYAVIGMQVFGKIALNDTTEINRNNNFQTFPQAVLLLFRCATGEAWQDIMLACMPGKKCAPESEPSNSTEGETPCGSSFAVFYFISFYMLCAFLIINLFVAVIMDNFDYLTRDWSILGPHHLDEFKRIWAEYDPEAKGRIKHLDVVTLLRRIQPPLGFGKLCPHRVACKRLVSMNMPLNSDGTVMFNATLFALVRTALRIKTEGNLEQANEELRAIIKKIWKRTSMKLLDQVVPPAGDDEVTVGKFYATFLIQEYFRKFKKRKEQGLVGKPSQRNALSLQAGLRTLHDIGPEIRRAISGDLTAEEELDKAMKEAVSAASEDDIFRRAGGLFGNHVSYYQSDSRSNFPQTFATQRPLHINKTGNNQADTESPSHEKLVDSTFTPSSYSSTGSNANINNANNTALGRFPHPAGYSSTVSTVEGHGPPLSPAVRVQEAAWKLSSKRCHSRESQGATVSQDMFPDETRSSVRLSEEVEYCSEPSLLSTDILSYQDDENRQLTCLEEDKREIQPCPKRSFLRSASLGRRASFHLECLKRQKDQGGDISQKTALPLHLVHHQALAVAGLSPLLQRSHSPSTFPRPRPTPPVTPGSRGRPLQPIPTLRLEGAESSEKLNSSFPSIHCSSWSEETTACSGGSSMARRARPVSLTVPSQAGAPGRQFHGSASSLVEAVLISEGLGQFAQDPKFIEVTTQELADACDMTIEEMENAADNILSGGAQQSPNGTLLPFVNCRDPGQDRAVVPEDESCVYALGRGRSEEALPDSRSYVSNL
T1 sequence (P54290 25-944 partner limits assumed): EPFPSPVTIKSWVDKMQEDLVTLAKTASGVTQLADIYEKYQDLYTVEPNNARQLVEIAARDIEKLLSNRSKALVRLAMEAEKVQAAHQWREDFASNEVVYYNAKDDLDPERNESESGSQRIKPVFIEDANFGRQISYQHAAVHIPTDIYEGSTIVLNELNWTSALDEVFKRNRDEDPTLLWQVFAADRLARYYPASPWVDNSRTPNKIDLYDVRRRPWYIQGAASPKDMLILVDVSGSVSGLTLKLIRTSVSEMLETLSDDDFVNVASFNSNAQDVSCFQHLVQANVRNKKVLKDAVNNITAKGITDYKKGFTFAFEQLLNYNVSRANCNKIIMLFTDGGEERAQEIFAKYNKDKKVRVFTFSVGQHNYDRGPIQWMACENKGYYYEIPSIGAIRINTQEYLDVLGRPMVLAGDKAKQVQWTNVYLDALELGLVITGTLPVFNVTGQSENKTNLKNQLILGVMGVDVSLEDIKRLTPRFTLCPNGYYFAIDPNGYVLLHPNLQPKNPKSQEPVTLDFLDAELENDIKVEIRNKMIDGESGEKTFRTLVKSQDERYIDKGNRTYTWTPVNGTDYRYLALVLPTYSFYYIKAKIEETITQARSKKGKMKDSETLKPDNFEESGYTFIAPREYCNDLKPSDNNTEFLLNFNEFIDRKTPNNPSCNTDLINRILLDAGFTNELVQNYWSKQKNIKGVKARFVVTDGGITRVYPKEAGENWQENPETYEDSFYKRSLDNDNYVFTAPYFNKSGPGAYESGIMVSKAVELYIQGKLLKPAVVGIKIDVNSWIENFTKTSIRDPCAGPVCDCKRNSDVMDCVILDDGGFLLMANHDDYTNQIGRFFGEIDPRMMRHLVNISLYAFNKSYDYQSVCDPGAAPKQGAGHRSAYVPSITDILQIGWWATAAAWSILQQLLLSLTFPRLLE
T1 sequence (P54290 945-1091 partner limits assumed): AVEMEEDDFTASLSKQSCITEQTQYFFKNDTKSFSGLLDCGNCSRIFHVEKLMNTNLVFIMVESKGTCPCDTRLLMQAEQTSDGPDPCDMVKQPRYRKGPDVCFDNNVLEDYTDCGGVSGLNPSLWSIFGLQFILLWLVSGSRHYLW

IC50 [1, 9]: 10 µM | IC50 [2]: 4 µM
Structure (SMILES): O=c1ccc(Cl)nn1CCCNCC1COc2ccccc2O1 (centres unmarked) [Example 2, 2-[3-(benzo[1,4]dioxan-2-yl-methylamino)-1-propyl]-6-chloro-3(2H)-pyridazinone hydrochloride]
Mean arterial pressure decrease (anaesthetized cats; 1.0 mg/kg i.v.): -90 Hgmm | blood pressure lowering action (in words) (anaesthetized cats): particularly expressed | Inhibition of the stimulation [3]: 0%

IC50 [1, 9]: 0.2 µM | IC50 [2]: 0.1 µM
Structure (SMILES): O=c1ccc(Cl)nn1CCCNCCOc1ccccc1 [Example 4]
Mean arterial pressure decrease (anaesthetized cats; 5.0 mg/kg i.v.): -70 Hgmm | blood pressure lowering action (in words) (anaesthetized cats): particularly expressed | Decrease in the systolic blood pressure (conscious SH rats [4]; 50 mg/kg p.o.): -33%

IC50 [1, 9]: 50 µM | IC50 [2]: 20 µM
Structure (SMILES): O=c1cccnn1CCCNCCOc1ccccc1 [Example 5]
Mean arterial pressure decrease (anaesthetized cats; 5.0 mg/kg i.v.): -100 Hgmm | blood pressure lowering action (in words) (anaesthetized cats): particularly expressed | inhibition of the pressor effect of epinephrine (in words) [5]: significant inhibition | Inhibition of the stimulation [3]: 16.2% | Decrease in the systolic blood pressure (conscious SH rats [4]; 10 mg/kg p.o.): -45% | Decrease in the systolic blood pressure (conscious SH rats [4]; 50 mg/kg p.o.): -42%

Structure (SMILES): O=c1ccc(-n2cccc2)nn1CCCNCCOc1ccccc1 [Example 6]
Mean arterial pressure decrease (anaesthetized cats; 5.0 mg/kg i.v.): -35 Hgmm

Structure (SMILES): O=c1ccc(Cl)nn1CCCNCCSc1ccccc1 [Example 7]
Mean arterial pressure decrease (anaesthetized cats; 5.0 mg/kg i.v.): -35 Hgmm

Structure (SMILES): O=c1ccc(Cl)nn1CCCNCCOc1ccccc1Cl [Example 8]
Mean arterial pressure decrease (anaesthetized cats; 5.0 mg/kg i.v.): -80 Hgmm | blood pressure lowering action (in words) (anaesthetized cats): particularly expressed | inhibition of the pressor effect of epinephrine (in words) [5]: significant inhibition | Decrease in the systolic blood pressure (conscious SH rats [4]; 50 mg/kg p.o.): -18%

Structure (SMILES): O=c1cccnn1CCCNCCCOc1ccccc1 [Example 9]
Mean arterial pressure decrease (anaesthetized cats; 5.0 mg/kg i.v.): -55 Hgmm

Structure (SMILES): O=c1cccnn1CCCNCCOc1ccccc1F [Example 10]
Mean arterial pressure decrease (anaesthetized cats; 5.0 mg/kg i.v.): -60 Hgmm | inhibition of the pressor effect of epinephrine (in words) [5]: significant inhibition | Decrease in the systolic blood pressure (conscious SH rats [4]; 50 mg/kg p.o.): -25%

Structure (SMILES): O=c1cccnn1CCNCCOc1ccccc1 [Example 21]
Mean arterial pressure decrease (anaesthetized cats; 5.0 mg/kg i.v.): -60 Hgmm

Structure (SMILES): CCOC(=O)N1CCN(c2ccc(=O)n(CCNCCOc3ccccc3)n2)CC1 [Example 22]
Mean arterial pressure decrease (anaesthetized cats; 5.0 mg/kg i.v.): -35 Hgmm

Structure (SMILES): Cc1cc(C)n(-c2ccc(=O)n(CCNCCOc3ccccc3)n2)n1 [Example 23]
Mean arterial pressure decrease (anaesthetized cats; 5.0 mg/kg i.v.): -65 Hgmm

Structure (SMILES): O=c1cccnn1CCNCC1COc2ccccc2O1 (centres unmarked) [Example 27]
Mean arterial pressure decrease (anaesthetized cats; 5.0 mg/kg i.v.): -30 Hgmm

Structure (SMILES): O=c1ccc(N2CCOCC2)nn1CCNCCOc1ccccc1 [Example 28]
Mean arterial pressure decrease (anaesthetized cats; 5.0 mg/kg i.v.): -50 Hgmm

Structure (SMILES): COC(=O)C1=C(C)NC(C)=C(C(=O)OC)C1c1ccccc1[N+](=O)[O-] [Nifedipine, 2,6-dimethyl-4-(2-nitrophenyl)-1,4-dihydropyridine-3,5-dicarboxylic acid dimethyl ester, reference compound]
IC50 [2]: 2 µM

Structure (SMILES): COc1cc2nc(N3CCN(C(=O)c4ccco4)CC3)nc(N)c2cc1OC.Cl [Prazosine, 1-(4-amino-6,7-dimethoxy-2-quinazolinyl)-4-(2-furylcarbonyl)-piperazine hydrochloride, reference compound]
hypotensive action relative to same intraduodenal dose of compound of Example 3 (or 12) (anaesthetized dogs; prazosine 1 mg/kg intraduodenal): only the half | IC50 [1]: 500 µM | IC50 [2]: 0.009 µM | hypotension [6]: 26% | hypotension in the 5th hour ([6]; 5th hour): 20% | decrease in resistance of the renal artery (renal artery): about 40% | antihypertensive effect in the 5th hour (conscious SH rats [7]; 1.25 mg/kg p.o., 5th hour): 26% | pA2 ([8]; negative logarithm of the molar antagonist concentration inhibiting the agonist to 50%, norepinephrine agonist, 5 min): 9.45 | Slope of the curve ([8]; rabbit aorta, norepinephrine): -0.96

Structure (SMILES): COc1ccc(CCN(C)CCCC(C#N)(c2ccc(OC)c(OC)c2)C(C)C)cc1OC (centres unmarked) [Verapamil, reference compound]
hypotension (anaesthetized dogs; 10 mg/kg intraduodenal): 30% | time of maximum effect (anaesthetized dogs; 10 mg/kg intraduodenal): 30 min | IC50 [2]: 1 µM | antihypertensive effect (conscious SH rats [7]; 50 mg/kg p.o.): 30%
